Active and inactive are the calls of the source. The calls are words filed in the database; no cut-off is given here.
Tests used:
[1] = organism: Rattus norvegicus; assay: Inhibition of soluble guanylate cyclase in rat aortic smooth muscle cells assessed as decrease in SNP-induced cGMP production pretreated 30 min before SNP challenge by enzyme immunoassay
[2] = organism: Rattus norvegicus; assay: Inhibition of particulate guanylate cyclase in rat aortic smooth muscle cells assessed as decrease in ANF-induced cGMP production at 100 uM pretreated 30 min before ANF challenge by enzyme immunoassay
[3] = organism: Rattus norvegicus; assay: Inhibition of soluble guanylate cyclase in rat aortic smooth muscle cells assessed as decrease in cGMP production at 100 uM after 30 mins by enzyme immunoassay
[4] = organism: Rattus norvegicus; assay: Inhibition of soluble guanylate cyclase in rat aortic smooth muscle cells assessed as decrease in SNP-induced cGMP production at 1 uM pretreated 30 min before SNP challenge by enzyme immunoassay
[5] = organism: Rattus norvegicus; assay: Inhibition of soluble guanylate cyclase in rat aortic smooth muscle cells assessed as decrease in SNP-induced cGMP production at 100 uM pretreated 30 min before SNP challenge by enzyme immunoassay

| Activity [1] | Activity [2] | Activity [3] | Activity [4] | Activity [5] | Compound |
| --- | --- | --- | --- | --- | --- |
| Dose-dependent effect | inactive | inactive |  |  | CCOCn1ccc2c3oncc3ccc21 |
|  |  |  | Active | Active | CCOCn1ccc2c1CCc1cnn(C)c1-2 |
|  |  |  | inactive | Active | CCOCn1ccc2c1CCc1cnoc1-2 |
|  |  |  |  | Active | CCOCn1ccc2c1CCc1cnn(-c3ccccc3)c1-2 |

Reference: ChEMBL document CHEMBL1154020, “Tricyclic indole and dihydroindole derivatives as new inhibitors of soluble guanylate cyclase” (Bioorg Med Chem Lett, 2009)
